Data set [1] in a line: maximum tolerated dose of clofarabine. It counts as in vivo. The note with it: species and study not stated. How it is done: It may be necessary to use dosages of the active ingredient outside the ranges disclosed herein in some cases, as will be apparent to those of ordinary skill in the art, but the dosage should not fall below 1.0 mg/kg/day. The maximum tolerated doses of clofarabine is approximately 80 mg/kg per day. Furthermore, it is noted that the clinician or treating physician will know how and when to interrupt, adjust, or terminate therapy in conjunction with individual patient response.

Data set [2] can be described thus: degradation of the drug during dissolution, lyophilization and drying of the parenteral formulation. The format is physicochemical. The note with it: dissolution in tertiary butanol/Water for Injection at 5° C., lyophilization at −16° C. for 48 hours, drying at 15° C. under high vacuum for 48 hours, protected from light. How it is done:
Clofarabine, 9.86 g, is wetted/partially dissolved with 600 mL of a 9:1 mixture of tertiary butanol and Water for Injection USP which is pre-cooled to 5° C. Once the drug powder is completely wetted, dissolution is completed by the addition of 600 mL of a 1:9 mixture of tertiary butanol and Water for Injection and 766 mL of a 1:1 mixture of tertiary butanol and Water for Injection which likewise is pre-cooled to 5° C. thereby making the final solution a 1:1 mixture. The dissolution is carried out under protection from light.
The solution formed above is promptly lyophilized in a Virtis INOTOP lyophilizer at −16° C. under light protectant conditions over a period of 48 hours. The resultant lyophilized product (lyophile) is then further dried at 15° C. under high vacuum for 48 hours. […] The lyophile is packaged under sterile conditions into 30 mL vials, each containing 50 mg of drug, 50 mg of mannitol and sodium hydroxide to adjust the pH to 7.7 and standard excess to allow for vial/needle/syringe loss.

Regarding `Nc1nc(Cl)nc2c1ncn2[C@@H]1O[C@H](CO)[C@@H](O)[C@@H]1F` [Clofarabine, 2 Chloro 9 (2 deoxy 2 fluoro β D arabinofuranosyl)adenine], the maximum tolerated dose result in data set [1] is given as “approximately 80 mg/kg per day”. Also, the “degradation of the drug” value in data set [2] was “No detectable degradation”.

These data come from US7772206B2, “Methods and compositions for the treatment of autoimmune disorders using clofarabine” (Genzyme Corporation, priority 2002, dated 2010).
